One assay addresses T1, 5-Lipoxygenase (Rattus norvegicus, UniProt P12527).
T1 construct: host or cells: RBL-1 (rat basophilic leukemia)
T1 sequence (P12527 1-673): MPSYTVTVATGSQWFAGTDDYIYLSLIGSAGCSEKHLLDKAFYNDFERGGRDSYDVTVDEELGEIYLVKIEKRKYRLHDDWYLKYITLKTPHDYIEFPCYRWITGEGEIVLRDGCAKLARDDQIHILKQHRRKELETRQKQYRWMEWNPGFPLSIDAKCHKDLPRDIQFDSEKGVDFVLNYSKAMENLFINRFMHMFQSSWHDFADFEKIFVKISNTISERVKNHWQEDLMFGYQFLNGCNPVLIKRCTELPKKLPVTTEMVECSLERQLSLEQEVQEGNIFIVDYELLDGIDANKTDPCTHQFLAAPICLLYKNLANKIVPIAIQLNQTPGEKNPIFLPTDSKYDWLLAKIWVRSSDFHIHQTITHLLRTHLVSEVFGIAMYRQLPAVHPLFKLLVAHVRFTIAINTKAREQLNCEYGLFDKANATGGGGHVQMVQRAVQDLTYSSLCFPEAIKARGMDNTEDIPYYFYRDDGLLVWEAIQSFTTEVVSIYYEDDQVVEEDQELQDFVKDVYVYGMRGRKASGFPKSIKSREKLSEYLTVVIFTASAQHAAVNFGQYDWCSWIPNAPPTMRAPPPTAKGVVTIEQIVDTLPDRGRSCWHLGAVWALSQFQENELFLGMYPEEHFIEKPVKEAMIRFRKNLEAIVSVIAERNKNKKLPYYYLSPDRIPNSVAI
Nature of the assay: ARBL whole cell 5-lipoxygenase assay (LTB4 formation in RBL-1 cells, A23187-stimulated). In kind it is cell-based. As to conditions: Table 2. As to the method: (§1) The rat basophilic leukemia cell line (RBL-1) was obtained from the American Type Culture Collection (Rockville, Md.).
(§2) Radioimmunoassay (RIA) kits of LTB4 and PGF2α were obtained from Amersham (Arlington Heights, Ill.) and Seragen (Boston, Mass.), respectively.
(§3) RBL-1 cells are grown in suspension culture in Eagle's minimum essential medium supplemented with 12% fetal bovine serum at 37° C. in an incubator supplied with air-5% carbon dioxide. Cells are harvested by centrifugation. They are washed with cold phosphate buffered saline pH 7.4 (PBS; NaCl, 7.1 g; Na2 HPO4, 1.15 g; KH2 PO4, 0.2 g; and KCl, 0.2 g/l). Cells are finally suspended in PBS containing 1.0 mM calcium at a density of 2×10^6 cells/ml. Cells are incubated with and without test agent (in DMSO) (1% DMSO is without effect on arachidonic acid metabolism) for ten minutes at room temperature. Calcium ionophore A23187 (5 μM) is added and cells are incubated for seven minutes at 37° C. The reaction is stopped by chilling the tubes on ice for ten minutes. Cells are separated by centrifugation and the supernatant is stored at -20°. Aliquots (100 μl) are analyzed for LTB4 and PGF2α using radioimmunoassay kits as provided by the supplier.
(§4) Tables 1 and 2 contain biochemical data obtained from the whole cell assay described above as IC50 s which are calculated as the concentration of test compound causing 50% inhibition of LTB4 or PGF2α formation. Table 2 also provides the dose at which 40% of swelling is inhibited in the CFE-2 assay.

For the next assay, the system named is Cyclooxygenase. Nature of the assay: ARBC whole cell cyclooxygenase assay (PGF2α formation in RBL-1 cells, A23187-stimulated). The conditions noted are these: Table 2. In kind it is cell-based, rat. As to the method: as §1, §2, §3, §4
Assay [1] relates to Carrageenan-Induced Rat Foot Paw Edema. Nature of the assay: Carrageenan-Induced Rat Foot Paw Edema-2 (CFE-2) Assay. As to conditions: 5 h, Table 2, dosed one hour before carrageenan, edema at five hours, probit analysis, read-out: CFE, ID40 (dose at which 40% inhibition of swelling occurs). In kind it is in vivo. On the procedure:
Carrageenan solution (1% w/v) is prepared by dissolving 100 mg carrageenan (Marine Colloidal Div., Springfield, N.J.) in 10 ml of sterile saline (0.9%) solution (Travenol). The solution is vortexed for 30 to 45 minutes. Animals are dosed with compound one hour before carrageenan challenge. Foot paw edema is induced by injecting 0.10 ml of the 1% carrageenan subcutaneously into the plantar portion of the right hind paw of each rat under light anesthesia. Initial foot paw volume is measured immediately following carrageenan challenge using mercury plethysmography (Buxco Electronics). Edema is measured five hours after carrageenan. The difference between the 5-hour and the initial paw volume is expressed as delta edema. The delta edema for each test group of animals is used to calculate the percent inhibition of edema achieved by the compound at the test dose compared with the vehicle control group. The data in Table 1 (the dose at which swelling is inhibited by the noted) is calculated by probit analysis for the dose at which 40% inhibition occurs.
as §4
Background: In the carrageenan paw model, swelling and tenderness develop within hours.

The term IC50 denotes the concentration that inhibits the measured activity by half. For `FC(F)(F)c1cccc(Nc2ccccc2-c2n[nH]c(=S)s2)c1` [Example 12, 5-[2-[(3-Trifluoromethylphenyl)amino]phenyl]-1,3,4-thiadiazole-2(3H)-thione], the IC50 against 5-Lipoxygenase turned out to be 870 nM; with Cyclooxygenase, 850 nM. In addition, the ED40 in assay [1] turned out to be 4.7 mg/kg.
With `FC(F)(F)c1cccc(Nc2ccccc2-c2n[nH]c(=S)o2)c1` [Example 6, 5-[2-[[3-(Trifluoromethyl)phenyl]amino]phenyl]-1,3,4-oxadiazol-2(3H)-thione], the IC50 was found to be 770 nM against 5-Lipoxygenase and 270 nM in the assay on Cyclooxygenase. For the same molecule, the ED40 in assay [1] worked out at 8.5 mg/kg.

These data come from US5462952A, “Fenamate 1,3,4-thiadiazoles and 1,3,4-oxadiazoles as antiinflammatory agents” (Warner-Lambert Company, priority 1993, dated 1995).
